Data from ChEMBL document CHEMBL4739717, “Methods of treating cartilage disorders through inhibition of clk and dyrk” (2020).

Tests used:
[1] = biological target: Dual specificity protein kinase CLK3 (Homo sapiens, UniProt P49761); experiment: Inhibition of recombinant CLK3 (unknown origin) using Ser/Thr 18 peptide as substrate incubated for 1 hr in presence of ATP by FRET assay
[2] = biological target: Dual specificity tyrosine-phosphorylation-regulated kinase 1A (Homo sapiens, UniProt Q13627); experiment: Inhibition of recombinant DYRK1A (unknown origin) using Ser/Thr 18 peptide as substrate incubated for 1 hr in presence of ATP by FRET assay
[3] = Induction of chondrogenesis in human MSC assessed as maximum activity at 10 nM incubated for 6 days by rhodamine B and Nile red staining based imaging analysis relative to control; type: functional; details: BMMSC, 144 h, time 6 day
[4] = Effect on Wnt signaling pathway in human SW480 cells harbouring TCF/LEF luciferase reporter gene and SP5-Luc reporter gene incubated for 36 to 48 hrs by luminescence assay; type: cell-based
[5] = Induction of chondrogenesis in human MSC assessed as incubated for 6 days by rhodamine B and Nile red staining based imaging analysis; type: functional; details: bmmsc
[6] = Induction of chondrogenesis in human MSC assessed as maximum activity at 30 nM incubated for 6 days by rhodamine B and Nile red staining based imaging analysis relative to control; type: functional; details: BMMSC, 144 h, time 6 day
[7] = Inhibition of IL1-beta induced MMP3 expression levels in human chondrocytes assessed as MMP3 levels incubated for 2hrs followed by IL1-beta stimulation and measured after overnight incubation by LANCE assay; type: functional, cell-based; details: Chondrocyte
[8] = Inhibition of IL1-beta induced MMP3 expression levels in human chondrocytes assessed as MMP3 levels incubated for 2hrs followed by IL1-beta stimulation and measured after overnight incubation by LANCE assay relative to control; type: functional, Chondrocyte
[9] = Induction of chondrogenesis in human MSC assessed as maximum activity at 100 nM incubated for 6 days by rhodamine B and Nile red staining based imaging analysis relative to control; type: functional; details: BMMSC, 144 h, time 6 day
[10] = Induction of chondrogenesis in human MSC assessed as maximum activity at 300 nM incubated for 6 days by rhodamine B and Nile red staining based imaging analysis relative to control; type: functional; details: BMMSC, 144 h, time 6 day

Chain of Dual specificity protein kinase CLK3 (P49761 whole entry): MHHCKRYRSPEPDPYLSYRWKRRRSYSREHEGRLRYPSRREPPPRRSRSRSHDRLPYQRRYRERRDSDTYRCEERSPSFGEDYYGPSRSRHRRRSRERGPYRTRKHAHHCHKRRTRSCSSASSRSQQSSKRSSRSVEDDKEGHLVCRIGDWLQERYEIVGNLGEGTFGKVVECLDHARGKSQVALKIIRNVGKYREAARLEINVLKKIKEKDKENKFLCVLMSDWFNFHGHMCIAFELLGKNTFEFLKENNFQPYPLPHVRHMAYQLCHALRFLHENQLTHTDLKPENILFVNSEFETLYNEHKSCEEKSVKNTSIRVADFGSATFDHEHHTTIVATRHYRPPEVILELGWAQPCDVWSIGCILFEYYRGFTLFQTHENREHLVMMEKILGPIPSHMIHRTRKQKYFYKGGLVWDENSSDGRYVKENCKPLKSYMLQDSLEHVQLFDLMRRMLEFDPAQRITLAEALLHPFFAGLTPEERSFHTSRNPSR

SMILES | EC50 [1] [µM] | EC50 [2] [nM] | Emax at 0.01 µM [3] [%] | EC50 [4] [nM] | EC50 [5] [nM] | Emax at 0.03 µM [6] [%] | EC50 [7] [nM] | Imax [8] [%] | Emax at 0.1 µM [9] [%] | Emax at 0.3 µM [10] [%]
Nc1cncc(-c2cc3c(-c4cc5c(-c6ccccc6F)ccnc5[nH]4)n[nH]c3cn2)c1 | > 10 | 42 | 32.4 | > 10000 |  |  |  |  |  | 
FC1(F)CCN(Cc2cncc(-c3ccc4[nH]nc(-c5cc6cccnc6[nH]5)c4n3)c2)C1 | 0.37 | 11 |  | 104 | 100 | 134 |  |  |  | 
COc1cncc(C#Cc2c[nH]nc2C(=O)Nc2ccc(N3CCNCC3)nc2)c1 | > 10 | 11 | 74.7 | > 10000 |  |  |  |  |  | 
CC(C)(C)C(=O)Nc1cncc(-c2ccc3[nH]nc(-c4nc5c(-c6cccnc6)cncc5[nH]4)c3c2)c1 |  | 5 |  | 85.4 |  |  | 1100 | 100 |  | 
O=C(Nc1c[nH]nc1C(=O)Nc1ccc(N2CCCC2)nc1)c1cncc(OC2CCNCC2)c1 |  | 9 |  | 2.5 |  |  | 3000 | 80 |  | 
COc1cncc(C(=O)Nc2c[nH]nc2C(=O)Nc2ccc3c(c2)CCNC3)c1 |  | 8 |  | 613 |  |  | 342 | 76 |  | 
CN(C)c1cncc(-c2cnc3[nH]nc(-c4cc5c(-c6ccncc6)cncc5[nH]4)c3c2)c1 | > 10 | 14 |  | > 10000 | 10 | 191 |  |  |  | 
c1cc(-c2ccnc3[nH]c(-c4n[nH]c5ccc(-c6cncnc6)cc45)cc23)ccn1 | > 10 | 68 |  | > 10000 |  |  |  |  | 17.3 | 
Cn1ncc(-c2ccc3cnc(NC(=O)C4CCN(C(=O)c5ccccc5)CC4)cc3c2)c1CN1CCCCC1 |  | 3 |  | 706 |  |  | 35 | 51 |  | 
O=C(Nc1cncc(-c2cnc3[nH]nc(-c4cc5cccnc5[nH]4)c3c2)c1)c1ccccc1 | > 10 | 14 | 21.8 | > 10000 |  |  |  |  |  | 
CCCC(=O)Nc1cncc(-c2ccc3[nH]nc(-c4nc5c(N6CCCCC6)cncc5[nH]4)c3c2)c1 |  | 14 |  | 42 |  | 77.3 | 20.5 | 39 |  | 
CO[C@H]1CC[C@H](C(=O)Nc2cc3cc(-c4cnn(C)c4CN4CCCCC4)ccc3cn2)CC1 |  | 2 |  | 471 |  |  | 3000 | 0.2 |  | 
CN(C)C1CN(c2ncc(C(=O)Nc3cc4cc(-c5cnn(C)c5)ccc4cn3)s2)C1 |  |  |  | 1320 |  |  | 71.4 | 0 |  | 
Cc1n[nH]c2ccc(-c3cncc(NCC4(F)CNC4)n3)cc12 |  | 11 |  | 780 |  |  | 2270 | 100 |  | 
O=C(Nc1cc2cc(-c3cncc(CN4CCC(O)CC4)c3)ccc2cn1)c1ccc(F)cc1 |  |  |  | 382 |  |  | 2.9 | 3.7 |  | 
c1cc(-c2ccnc3[nH]c(-c4n[nH]c5ccc(-c6cncc(CNCC7CCCC7)c6)nc45)cc23)ccn1 | > 10 | 40 |  | > 10000 | 100 |  |  |  | 67.2 | 
Cn1ncc(-c2ccc3cnc(NC(=O)c4ccnc(N5CCOCC5)c4)cc3c2)c1CN1CCOCC1 |  |  |  |  |  |  | 3000 | 70 |  | 
CN1CCC(Oc2ccc3[nH]c(-c4n[nH]c5ccc(-c6cnn(C)c6)cc45)nc3c2)CC1 |  | 2 |  | 18.3 |  |  | 170 | 100 |  | 
O=C(Nc1c[nH]nc1C(=O)Nc1cccnc1)c1cccnc1 |  | 12 |  | 20.5 |  |  | 38.9 | 100 |  | 
CCCC(=O)Nc1cncc(-c2ccc3[nH]nc(-c4cc5c(-c6ccncc6)cncc5[nH]4)c3c2)c1 | 0.46 | 6 |  | > 10000 | 100 |  |  |  | 124 | 
O=C(Cc1ccccc1)Nc1cncc(-c2ccc3[nH]nc(-c4cc5cnccc5[nH]4)c3c2)c1 | 0.18 | 8 | 119 | 1760 | 10 |  |  |  |  | 
c1cc(-c2cncc3[nH]c(-c4n[nH]c5ccc(-c6cncc(CNCC7CCCC7)c6)cc45)nc23)cs1 | > 10 | 12 |  | 58 | 100 |  |  |  | 167 | 
Cn1cc(-c2ccc3cnc(NC(=O)c4ccnc(OC5CNC5)c4)cc3c2)cn1 |  |  |  |  |  |  | 154 | 100 |  | 
CN1CCN(c2ccnc3[nH]c(-c4n[nH]c5ccc(-c6cncc(NC(=O)c7ccccc7)c6)nc45)cc23)CC1 | 0.258 | 29 | 61.8 | 6100 | 10 |  |  |  |  | 

SMILES | EC50 [1] [µM] | EC50 [2] [nM] | Emax at 0.01 µM [3] [%] | EC50 [4] [nM] | EC50 [5] [nM] | Emax at 0.03 µM [6] [%] | EC50 [7] [nM] | Imax [8] [%] | Emax at 0.1 µM [9] [%] | Emax at 0.3 µM [10] [%]
c1cncc(-c2ccc3[nH]nc(-c4nc5c(N6CCOCC6)cncc5[nH]4)c3c2)c1 |  | 2 |  | 23 |  | 90.4 | 13.6 | 100 |  | 
Cn1cc(-c2ccc3cnc(NC(=O)c4ccnc(N5CC6CC5CN6)c4)cc3c2)cn1 (centres undefined) |  |  |  |  |  |  | 3000 | 69 |  | 
c1cc(-c2ccnc3[nH]c(-c4n[nH]c5ccc(-c6cncc(OCCN7CCCC7)c6)nc45)cc23)ccn1 | > 10 | 28 |  | > 10000 |  |  |  |  |  | 39.6
Fc1ccc(-c2cncc3[nH]c(-c4n[nH]c5cnc(-c6cncc(CN7CCCC7)c6)cc45)nc23)s1 |  | 8 |  | 470 |  |  | 3000 | 81 |  | 
CN(C)CCOc1cncc(-c2cc3c(-c4cc5c(-c6ccc(F)cc6)nccc5[nH]4)n[nH]c3cn2)c1 | > 10 | 43 |  | 3000 | 900 |  |  |  |  | 113
CN1CCN(c2cc(C(=O)Nc3cc4cc(-c5cncs5)ccc4cn3)ccn2)CC1 |  |  |  |  |  | 22.3 | 423 | 100 |  | 
NC(=O)c1ccc(NC(=O)c2n[nH]c3ccc(-c4cncc(CN5CCCCC5)c4)cc23)cn1 |  | 1 |  | 13 |  |  | 2220 | 100 |  | 
O=C(Nc1c[nH]nc1C(=O)Nc1cncc(-c2cccc(F)c2)c1)c1cncc(F)c1 | > 10 | 63 |  | 479 |  |  | 0.4 |  | 81.5 | 
c1cnc2cc(-c3n[nH]c4ccc(-c5cncc(CN6CCCCC6)c5)cc34)[nH]c2c1 |  | 5 |  | 165 |  |  | 319 | 100 |  | 
O=C(Nc1cccnc1)c1n[nH]c2ccc(-c3cncc(CN4CCS(=O)(=O)CC4)c3)cc12 |  | 2 |  | 210 |  |  | 616 | 8.6 |  | 
O=C(Nc1c[nH]nc1-c1nc2c(-c3cccc(F)c3)cccc2[nH]1)c1cccnc1 |  | 4 |  | 2.9 |  |  | 76.5 | 100 |  | 
O=C(Nc1ccc(CN2CCCC2)cc1)c1n[nH]c2ccc(-c3cnn(C4CC4)c3)cc12 |  | 4 |  | 451 |  |  | 3000 | 57 |  | 
O=C(Nc1c[nH]nc1C(=O)Nc1ccc(N2CCCCC2)nc1)c1cncc(OC2CCNCC2)c1 |  | 10 |  | 662 |  |  | 3000 | 71 |  | 
O=C(Nc1ccc(C(=O)N2CCCC2)nc1)c1n[nH]c2ccc(-c3cncc(CN4CCCCC4)c3)cc12 |  | 1 |  | 30 |  |  | 3000 | 100 |  | 
Nc1cncc(-c2cc3c(-c4cc5c(-c6ccncc6)cncc5[nH]4)n[nH]c3cn2)c1 | > 10 | 3 |  | > 10000 | 10 | 52 |  |  |  | 
CC(C)Nc1cncc(-c2cnc3[nH]nc(-c4cc5c(-c6ccccc6F)ccnc5[nH]4)c3c2)c1 | > 10 | 35 | 81.6 | > 10000 | 10 |  |  |  |  | 
Cn1cc(-c2cnc3[nH]nc(-c4cc5cccnc5[nH]4)c3c2)cn1 | > 10 | 8 |  | > 10000 | 300 |  |  |  |  | 51.7
O=C(Nc1ccc(OCCN2CCCC2)nc1)c1n[nH]cc1C#Cc1cccnc1 | > 10 | 24 |  | 409 |  | 68.8 |  |  |  | 
CN1CCC(Nc2ccc(NC(=O)c3n[nH]c4cc(F)c(-c5cnn(C)c5)cc34)cn2)CC1 |  | 2 |  | 230 |  |  | 1160 | 100 |  | 
CN1CCN(c2ccnc3[nH]c(-c4n[nH]c5ccc(-c6cn[nH]c6)nc45)cc23)CC1 | > 10 | 49 |  | > 10000 | 300 |  |  |  |  | 60.1
Cc1ccncc1-c1ccc2[nH]nc(-c3cc4c(-c5ccncc5)ccnc4[nH]3)c2n1 | > 10 | 66 |  | > 10000 | 300 |  |  |  |  | 56.5
CC(C)N1CCC(n2cc(C(=O)Nc3cc4cc(-c5cn(C)nn5)ccc4cn3)cn2)CC1 |  |  |  | 32.7 |  |  | 492 | 91 |  | 
CN1CCC(n2cc(NC(=O)c3n[nH]c4ccc(-c5cnn(C)c5)cc34)cn2)CC1 |  | 1 |  | 79 |  |  | 818 | 100 |  | 
